Laboratory results from patent US20250205373A1, “ENRICHED AND STABLE RADIOLIGAND THERAPY FORMULATIONS AND PHARMACEUTICAL COMPOSITIONS COMPRISING SAME” (Mariana Oncology Inc., priority 2023, published 2025).
Numbered stars: 1 amine (or outer) side, 2 acyl side, 3 side chain; on linkers, the order of the positions; unused ones are H or OH. Bridge positions count the residues as written; N and C are the ends. Square brackets hold non-standard residues; d marks the D form. Side chains are listed from the residue outwards. Peptide text beside a SMILES is read from it. * marks the point of attachment. Ala(1-CH2CO2H-4-piperidyl) = N[C@@H](CC1CCN(CC(=O)O)CC1)C(=O)O; Ala(piperidin-4-yl) = O=C([C@H](CC1CCN([*:3])CC1)N[*:1])[*:2]; X1 = CC(C)[C@H](N[*:1])C(=O)C[C@@H](Cc1ccc(O)cc1)C(=O)[*:2]; DOTA = O=C(O)CN1CCN(CC(=O)O)CCN(CC(=O)*)CCN(CC(=O)O)CC1; Trp(5-F) = N[C@@H](Cc1c[nH]c2ccc(F)cc12)C(=O)O; X2 = C[C@@H](c1ccccc1)[C@H](N[*:1])C(=O)[*:2]; Val(3-OH) = CC(C)(O)[C@H](N)C(=O)O; PEG4 = NCCOCCOCCOCCOCCC(=O)O; Tle = CC(C)(C)[C@H](N)C(=O)O; hLeu = CC(C)CC[C@H](N)C(=O)O

Biological target: T1, B7-H3 (41 g) (Homo sapiens, UniProt Q5ZPR3)
T1 sequence (Q5ZPR3 29-534): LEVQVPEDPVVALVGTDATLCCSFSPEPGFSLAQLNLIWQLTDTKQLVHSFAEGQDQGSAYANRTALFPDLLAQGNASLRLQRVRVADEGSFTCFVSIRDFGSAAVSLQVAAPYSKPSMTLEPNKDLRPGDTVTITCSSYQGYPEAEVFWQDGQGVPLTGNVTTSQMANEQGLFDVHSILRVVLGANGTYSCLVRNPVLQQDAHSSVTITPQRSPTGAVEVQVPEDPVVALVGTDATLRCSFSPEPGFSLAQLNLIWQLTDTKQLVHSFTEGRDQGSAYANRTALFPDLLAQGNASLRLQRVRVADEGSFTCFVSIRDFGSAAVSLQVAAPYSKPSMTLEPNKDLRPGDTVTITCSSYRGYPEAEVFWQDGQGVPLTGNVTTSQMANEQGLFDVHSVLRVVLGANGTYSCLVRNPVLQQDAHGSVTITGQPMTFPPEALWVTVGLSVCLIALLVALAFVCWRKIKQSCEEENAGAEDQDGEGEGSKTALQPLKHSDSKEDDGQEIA
Experiment: Binding of Compound 496 to B7-H3

CC(=O)N[C@@H](CCC(C)C)C(=O)N[C@@H](Cc1ccc(O)cc1)C(=O)N[C@H]1CSSC[C@@H](C(=O)N[C@@H](Cc2c[nH]c3ccc(F)cc23)C(=O)N[C@H](C(=O)N[C@H](C(=O)N[C@H](CCC(=O)O)C(N)=O)C(C)(C)O)[C@@H](C)c2ccccc2)NC(=O)[C@H](Cc2ccc(O)cc2)CC(=O)[C@H](C(C)C)NC(=O)[C@H](CC(=O)O)NC(=O)[C@H](CC2CCN(C(=O)CCOCCOCCOCCOCCNC(=O)CN3CCN(CC(=O)O)CCN(CC(=O)O)CCN(CC(=O)O)CC3)CC2)NC(=O)[C@H](CC2CCN(CC(=O)O)CC2)NC(=O)CNC(=O)[C@H](C(C)(C)C)NC1=O [Compound 496] (Ac-[hLeu]YC[Tle]G[Ala(1-CH2CO2H-4-piperidyl)][Ala(piperidin-4-yl)]([PEG4-DOTA])D[X1]C[Trp(5-F)][X2][Val(3-OH)][dE]-NH2; disulfide 3-10)
selectivity over the 21 g isoform (B7-H3 (41 g) vs 21 g isoform): selectivity over the 21 g isoform
binding affinity (B7-H3 (41 g), the predominant form expressed by tumor cells): high affinity
